Reference: article PMC5531494, “Target specificity, in vivo pharmacokinetics, and efficacy of the putative STAT3 inhibitor LY5 in osteosarcoma, Ewing's sarcoma, and rhabdomyosarcoma” (PLoS ONE, 2017)
Marks after values point to notes of the source that are not given here.

Legend:
[1] = molecular target: T1, STAT3 (Mus musculus, UniProt P42227); assay: Western blot of pSTAT3 in K7M2 cells; format: cell-based, murine
T1 construct: endogenous in cells; host or cells: K7M2
Protocol: Murine K7M2 and human MG63.3 OS cells were treated with increasing concentrations of LY5 for 2 hrs or 7 hrs. Western blotting was performed for pSTAT3 and STAT3 as indicated above to confirm inhibition of STAT3 phosphorylation in the cell lines prior to initiation of the PuMA assay. In addition, a sulforhodamine B colorimetric assay was performed to assess the cytotoxicity of LY5 in K7M2 and MG63.3 cells as previously described.
MG63.3 and K7M2 cell lines were exposed to increasing concentrations of LY5 to determine the IC50 (A). Western blot analysis was performed to determine the dose and duration of LY5 exposure required to inhibit STAT3 phosphorylation (B-C). Serial imaging of fluorescently labeled MG63.3 and K7M2 cells was performed in ex vivo LY5 treated lung sections (D). Metastatic burden was quantified by evaluation of the percent tumor burden (mean normalized fluorescent area). Data are reported as the mean ± standard deviation. In MG 63.3 experiment, p < 0.0001 Kruskal-Wallis test, p < 0.05 10 μM vs control at days 7, 14, and 21, 10 μM vs 1 μM at days 7, 14, and 21, 50 μM vs control at days 7, 14, and 21, and 50 μM vs 10 μM at days 7, 14, and 21 post-test Dunn. In K7M2 experiment, p < 0.0001 Kruskal-Wallis test, p < 0.05 10 μM vs control at days 14 and 21, 10 μM vs 0.1 μM at days 14 and 21, and 10 μM vs 1 μM at days 14 and 21, post-test Dunn.

[2] = test system: 96 human protein or lipid kinases; assay: KINOMESCAN binding profile
Protocol: To determine the specificity of STAT blockade, we asked whether LY5 affected the phosphorylation of other family members including STAT1, STAT2, STAT4, and STAT6 [30–32]. […] To further define any potential off-target effects, we profiled the direct (steric) or indirect (allosteric) binding of LY5 to the binding sites of 96 human protein or lipid kinases (KINOMESCAN, www.kinomescan.com).
Supplementary file pone.0181885.s001.pdf: S1 Fig Kinomescan results for LY5. […] At 5 μM LY5 (B), only interaction with PLK3 was identified, mapped S-score (35) = 0.01. (PDF) Click here for additional data file.

[3] = Toxicity / tolerability in mice; format: in vivo
Protocol: Single-dose toxicity studies in mice were performed to identify the maximum tolerated dose of LY5. Additionally, 30 ICR mice (Harlan Laboratories, Indianapolis, IN) were divided into 3 groups to be dosed with 5 mg/kg LY5 (2 mg/ml) by oral (PO), intraperitoneal (IP) or intravenous (IV) routes to establish oral bioavailability. Animals were euthanized and blood was collected at allocated time points (5, 10, 20, 30 and 60 minutes, 2, 4, 6, 8 and 24 hrs) after LY5 administration, plasma was separated by centrifugation and frozen immediately on dry ice. Samples were stored at -80° C prior to analysis.

[4] = Clinical toxicities in normal dogs; format: in vivo; conditions: 1 mg/kg, 24 hour PK collection timeframe
Protocol: LY5 was evaluated in two normal purpose-bred beagle dogs (female 8.8 kg; male 11.2 kg) receiving a single dose of 1mg/kg LY5 IV then orally by gavage 7 days later to establish the PK profile and assess the spectrum of clinical toxicities associated with LY5 administration. The oral dosing was repeated in the fed and fasted state. The starting dose was determined based on allometric scaling from the maximal tolerated dose studies performed in mice. Dogs were washed out for 30 days, and then given a dose of 25 mg in a capsule orally, followed by a 50 mg capsule dose 14 days later. Full PK sampling was performed over 24 hours following each dose of LY5. The dogs received LY5 and were used for the PK analysis but were not euthanized upon conclusion of the study.

[5] = test system: Rh36; assay: Subcutaneous xenograft study; format: in vivo, mice; conditions: Rh36, 10 mg/kg daily for 28 days
Protocol: (§1) C.B-17SC scid^-/- female mice (Taconic Farms, Germantown NY), were used to propagate subcutaneously implanted tumors. All mice were maintained under barrier conditions and experiments were conducted using protocols and conditions approved by the institutional animal care and use committee at University of Texas Health Science Center at San Antonio. Ten mice were used in each control or treatment group. Tumor volumes (cm^3) were determined and responses were determined using three activity measures as previously described.
(§2) The data were analyzed by using GraphPad Prism software (GraphPad Software, Inc., San Diego, CA). Data are presented as mean ± standard deviation. Data were analyzed by one-way analysis of variance (ANOVA), and Tukey’s post-test was used to assess differences between groups. Differences were considered statistically significant at p < 0.05. For in vivo xenograft models, an event was defined as four times the tumor volume at baseline similar to the PPTP criteria. The probabilities of time-to-event among groups were compared using log-rank test. The anti-tumor efficacy of LY5 was analyzed by using the statistical pipeline developed in PPTP [27].

[6] = test system: Rh10; assay: Subcutaneous xenograft study; format: in vivo, mice; conditions: Rh10, 10 mg/kg daily for five days for four consecutive weeks
Protocol: as §1, §2

[7] = test system: OS-17; assay: Subcutaneous xenograft study; format: in vivo, mice; conditions: OS-17, 10 mg/kg daily for 28 days
Protocol: as §1, §2

T1 sequence (P42227 whole entry): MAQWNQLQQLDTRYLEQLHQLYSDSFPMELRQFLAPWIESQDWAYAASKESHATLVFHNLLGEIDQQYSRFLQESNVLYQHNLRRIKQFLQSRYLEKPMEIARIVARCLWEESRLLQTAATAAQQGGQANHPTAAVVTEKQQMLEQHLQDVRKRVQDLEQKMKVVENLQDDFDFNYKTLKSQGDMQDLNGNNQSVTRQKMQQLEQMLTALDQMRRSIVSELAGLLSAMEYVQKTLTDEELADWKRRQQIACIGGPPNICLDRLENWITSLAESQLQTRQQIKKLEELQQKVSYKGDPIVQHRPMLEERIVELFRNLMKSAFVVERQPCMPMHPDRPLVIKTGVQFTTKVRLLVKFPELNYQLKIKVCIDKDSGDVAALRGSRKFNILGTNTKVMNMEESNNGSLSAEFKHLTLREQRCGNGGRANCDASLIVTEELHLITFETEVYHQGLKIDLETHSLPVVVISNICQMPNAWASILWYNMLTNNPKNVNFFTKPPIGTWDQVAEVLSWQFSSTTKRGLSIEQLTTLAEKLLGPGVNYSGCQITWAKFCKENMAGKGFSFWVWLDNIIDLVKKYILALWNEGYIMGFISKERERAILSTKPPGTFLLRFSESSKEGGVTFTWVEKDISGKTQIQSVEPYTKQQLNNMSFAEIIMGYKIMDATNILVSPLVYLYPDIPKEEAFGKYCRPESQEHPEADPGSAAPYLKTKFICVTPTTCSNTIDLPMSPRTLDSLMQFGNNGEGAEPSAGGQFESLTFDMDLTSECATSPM

NS(=O)(=O)c1cccc2c1C(=O)C=C(Nc1cccnc1)C2=O [LY5, 5,8-dioxo-6-(pyridin-3-ylamino)-5,8-dihydronaphthalene-1-sulfonamide]
concentration for complete inhibition of STAT3 in vitro ([1]; K7M2): 10 µM
exposure time for effective inhibition of STAT3 phosphorylation ([1]; K7M2, 1 μM LY5): 4 h
concentration that decreased STAT3 phosphorylation ([1]; K7M2, 2 hrs treatment): 1 µM
binding to any of 96 kinases ([2]; 1 μM LY5): no binding
mapped S-score (35) ([2]; 1 μM LY5): 0
mapped S-score (35) ([2]; 5 μM LY5): 0.01
tolerable dosing [3]: 40 mg/kg BID
toxicity ([3]; doses received via IV, oral, or IP routes): No toxicity was noted
tolerability / acute clinical toxicities [4]: well tolerated without apparent acute clinical toxicities
Event-free survival (Treatment/Control) [5]: 0.94
Group Response [5]: PD1 (Progressive disease 1, <50% tumor growth inhibition (TGI))
Median day to event [5]: 16.5 days
Survival (%) [5]: 100%
Event-free survival (Treatment/Control) [6]: 1.11
Group Response [6]: PD1^e (Progressive disease 1, <50% tumor growth inhibition (TGI))
Median day to event [6]: 18.7 days
Survival (%) [6]: 100%
Event-free survival (Treatment/Control) [7]: 1.15
Group Response [7]: PD1 (Progressive disease 1, <50% tumor growth inhibition (TGI))
Median day to event [7]: 19.7 days
Survival (%) [7]: 90%
